This passage reports inhibition results from ChEMBL document CHEMBL3817755, “Design, synthesis and biological evaluation of indazolepyrimidine based derivatives as anticancer agents with anti-angiogenic and antiproliferative activities” (Medchemcomm, 2016).

Each structure is given as a SMILES string.

The target in this assay is Vascular endothelial growth factor receptor 2 (Homo sapiens, UniProt P35968). Description: Inhibition of VEGFR-2 (unknown origin) at 10 uM after 1 hr by Z'LYTE assay.
Chain of Vascular endothelial growth factor receptor 2 (P35968 whole entry): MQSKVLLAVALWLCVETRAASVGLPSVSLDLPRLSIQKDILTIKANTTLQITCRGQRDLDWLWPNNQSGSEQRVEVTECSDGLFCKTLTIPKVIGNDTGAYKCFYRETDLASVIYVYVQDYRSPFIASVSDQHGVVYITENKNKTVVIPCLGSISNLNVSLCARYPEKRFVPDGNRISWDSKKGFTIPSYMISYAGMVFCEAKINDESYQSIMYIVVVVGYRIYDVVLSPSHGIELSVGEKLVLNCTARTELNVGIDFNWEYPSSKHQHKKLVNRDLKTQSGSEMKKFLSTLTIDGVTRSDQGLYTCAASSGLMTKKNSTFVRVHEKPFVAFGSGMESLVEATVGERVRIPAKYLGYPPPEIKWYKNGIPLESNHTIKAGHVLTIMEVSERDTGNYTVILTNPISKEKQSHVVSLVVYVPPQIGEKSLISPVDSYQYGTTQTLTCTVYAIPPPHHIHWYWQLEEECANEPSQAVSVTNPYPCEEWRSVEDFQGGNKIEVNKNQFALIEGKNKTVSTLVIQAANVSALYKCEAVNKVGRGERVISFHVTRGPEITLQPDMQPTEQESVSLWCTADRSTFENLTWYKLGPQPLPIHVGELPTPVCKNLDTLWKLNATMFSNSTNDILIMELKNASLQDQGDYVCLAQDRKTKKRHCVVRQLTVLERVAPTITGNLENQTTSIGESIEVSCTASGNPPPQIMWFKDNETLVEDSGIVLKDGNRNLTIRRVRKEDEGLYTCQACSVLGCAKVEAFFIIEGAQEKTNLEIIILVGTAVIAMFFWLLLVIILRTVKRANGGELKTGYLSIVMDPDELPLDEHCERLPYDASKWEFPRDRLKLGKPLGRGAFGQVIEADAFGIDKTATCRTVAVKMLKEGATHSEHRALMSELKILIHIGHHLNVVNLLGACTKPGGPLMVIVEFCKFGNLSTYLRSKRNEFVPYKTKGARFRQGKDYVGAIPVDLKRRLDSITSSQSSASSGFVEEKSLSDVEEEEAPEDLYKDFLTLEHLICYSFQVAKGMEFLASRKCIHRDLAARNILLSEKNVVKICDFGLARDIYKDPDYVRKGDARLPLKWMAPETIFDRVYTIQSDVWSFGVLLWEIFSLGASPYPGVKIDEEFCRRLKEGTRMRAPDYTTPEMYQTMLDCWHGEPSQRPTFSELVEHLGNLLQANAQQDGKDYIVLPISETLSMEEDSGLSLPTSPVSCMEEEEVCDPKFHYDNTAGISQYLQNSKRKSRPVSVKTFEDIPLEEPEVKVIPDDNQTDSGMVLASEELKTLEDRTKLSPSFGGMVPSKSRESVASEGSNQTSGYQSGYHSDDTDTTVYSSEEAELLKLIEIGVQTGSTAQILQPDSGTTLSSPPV

In the case of `Cc1c2ccc(Nc3ccnc(Nc4ccc(F)cc4)n3)cc2nn1C`, the inhibition was found to be 63.8%.
Regarding `Cc1c2ccc(Nc3ccnc(Nc4ccc(S(N)(=O)=O)cc4)n3)cc2nn1C`, the inhibition stood at 60.8%.
